From PubChem BioAssay (NCI) come the findings set out here.

As a reminder, the GI50 is the concentration giving 50% growth inhibition. The TGI is the concentration giving total growth inhibition.

Each structure is given as a SMILES string. Values joined by “and” are separate entries in the source; they are usually repeats but may differ in a detail not shown here. Identical values can stand only once.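 Method: 48-hour compound exposure of cells in 96-well plates, five concentrations, linear interpolation of endpoints. At the GI50, growth is halved. TGI denotes the concentration required for complete inhibition of growth.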 A value given as a limit tells only on which side of the number the result lay.

Common to all, as to assay: DTP human tumour cell line panel, 48 h
Assay [1] has as its system HOP-62 NSCLC.
Assay [2] deals with COLO 205 colon.
In assay [3] the test system is SN12C renal.
Assay [4] relates to BT-549 breast.
For assay [5], the system named is DU-145 prostate.
For assay [6], the system named is U251 CNS.

In the case of `Cn1cc(C2=C(c3c4n(c5ccccc35)CCC(CN)CC4)C(=O)NC2=O)c2ccccc21` (stereo not drawn), the GI50 was 3.93 µM in assay [1]; 3.49 µM in assay [2]; 3.87 µM in assay [3]; 4.7 µM in assay [4]; 4.55 µM in assay [5]; 3.74 µM in assay [6]. Also, the TGI in assay [1] is 8.22 µM; in assay [2] it was 7.45 µM; in assay [3], 8.14 µM; in assay [4], 8.62 µM; in assay [5], 8.21 µM; in assay [6] it was 7.21 µM.

Turning to `Cc1cccc(N=C2c3cc([N+](=O)[O-])ccc3-c3c2cc([N+](=O)[O-])cc3[N+](=O)[O-])c1`, the GI50 in assay [1] is 4.28 µM; in assay [2], 3.34 µM; in assay [3], 2.14 µM; in assay [4], 3.45 µM; in assay [5], 3.24 µM; in assay [6], 2.57 µM. In addition, the TGI in assay [1] came out at 19.9 µM; in assay [2] it was 17.1 µM; in assay [3] it was 4.8 µM; in assay [4] it was 11.2 µM; in assay [5], 11 µM; in assay [6] it was 7.41 µM.

As for `CN(C)CC1CCn2c(c(C3=C(c4cn(C)c5ccccc45)C(=O)NC3=O)c3ccccc32)C1` (stereo not drawn), the GI50 in assay [1] was 4.55 µM; in assay [2], 3.42 µM; in assay [3], 3.89 µM; in assay [4], 5.3 µM; in assay [5], 4.91 µM; in assay [6], 3.95 µM. Also, the TGI in assay [1] turned out to be 8.91 µM; in assay [2], 7.51 µM; in assay [3] it was 8.11 µM; in assay [4], 12.2 µM; in assay [5], 10.9 µM; in assay [6] it was 7.64 µM.

With `CC1(C)C2CCC13C(=O)C1OC3(C2)C2C(=O)c3c(O)ccc(O)c3C(=O)C12` (stereo not drawn), the GI50 in assay [1] was 54.5 µM; in assay [2], 25.9 µM; in assay [3], 16.3 µM; in assay [4] it was over 70.3 µM; in assay [5], 32.2 µM; in assay [6], 44.4 µM. Further, the TGI in assay [1] was over 100 µM; in assay [2] it was over 61.5 µM; in assay [3] it was 35.7 µM; in assay [4], over 92.2 µM; in assay [5], 96.5 µM; in assay [6] it was 96.9 µM.

For the compound `Cc1ccc(S(=O)(=O)n2cc(C(=O)C(=O)Nc3ccncc3)c3ccccc32)cc1`, the GI50 in assay [1] was 4.43 µM; in assay [2], 18.7 µM; in assay [3], 4.79 µM; in assay [4], 3.62 µM; in assay [5], 3.34 µM; in assay [6], 1.4 µM. In addition, the TGI in assay [1] was over 100 µM; in assay [2], 48.1 µM; in assay [3] it was over 100 µM; in assay [4], over 100 µM; in assay [5], over 100 µM; in assay [6], over 56.1 µM.

Turning to `COc1cc2c(cc1OC)[C@@]1(C)C(=O)c3cc4c(cc3[C@H]1N(C)C2=O)OCO4`, the GI50 in assay [1] was over 100 µM; in assay [2], over 100 µM; in assay [3], 82.4 µM; in assay [4], 29 µM; in assay [5] it was 58.1 µM; in assay [6], 34.3 µM. Also, the TGI in assay [1], in assay [2], in assay [3], in assay [4], in assay [5] and in assay [6] was over 100 µM throughout.

Take `COc1ccc(Nc2ccnc(NCCCNc3ccnc4cc(Cl)ccc34)n2)cc1`: the GI50 in assay [1] is 1.61 µM; in assay [2], 1.21 µM; in assay [3], 1.59 µM; in assay [4] it was 1.65 µM; in assay [5], 2.6 µM; in assay [6], 0.59 µM. Further, the TGI came to 4.44 µM in assay [1]; 2.65 µM in assay [2]; 8.94 µM in assay [3]; 3.94 µM in assay [4]; 10.7 µM in assay [5]; 1.89 µM in assay [6].

As to `O=C(O)c1cccc(CC(Br)C(=O)O)c1` (stereo not drawn), the TGI in assay [1], in assay [2], in assay [3], in assay [4], in assay [5] and in assay [6] was over 100 µM each time.

Take `O=C(O)CCC1CCC(c2cc(F)ccc2F)(S(=O)(=O)c2ccc(Cl)cc2)CC1` (stereo not drawn): the GI50 in assay [1] was 30.5 µM and > 100 µM; in assay [2], 42.3 µM and > 100 µM; in assay [3], 49 µM and > 100 µM; in assay [4] it was 10.9 µM and 97.8 µM; in assay [5], 93.4 µM and > 100 µM; in assay [6], 32.7 µM and > 100 µM. The TGI is over 100 µM in assay [1]; over 100 µM in assay [2]; over 100 µM in assay [3]; 43.1 µM and > 100 µM in assay [4]; over 100 µM in assay [5]; over 100 µM in assay [6].

On to `O=C1/C(=C/C(Cl)=C/c2ccccc2)SC(=S)N1CCc1ccc(O)cc1`, for which the GI50 was 3.15 µM in assay [1]; 2.27 µM in assay [2]; 1.51 µM in assay [3]; 3.44 µM in assay [4]; 1.6 µM in assay [5]; 1.23 µM in assay [6]. The TGI in assay [1] was 12.2 µM; in assay [2], 7.69 µM; in assay [3], 4.12 µM; in assay [4], over 100 µM; in assay [5] it was 3.28 µM; in assay [6] it was 2.66 µM.

As for `[N-]=[N+]=CC(=O)OCC(N)C(=O)O` (stereo not drawn), the GI50 in assay [1] is 2.26 µM; in assay [2], 0.778 µM; in assay [3] it was 0.749 µM; in assay [4] it was 16.7 µM; in assay [5], 0.952 µM; in assay [6], 0.778 µM. Moreover, the TGI in assay [1], in assay [2], in assay [3], in assay [4], in assay [5] and in assay [6] was over 100 µM each time.

On to `O=C(Nc1ccc(Br)c(Cl)c1)c1cc(F)ccc1O`, for which the GI50 was 0.893 µM in assay [1]; 2.75 µM in assay [2]; 0.533 µM in assay [3]; 0.525 µM in assay [4]; 1.39 µM in assay [5]; 0.768 µM in assay [6]. Besides, the concentration for total growth inhibition (TGI) in assay [1] is over 13.2 µM; in assay [2], 13.9 µM; in assay [3], 8.91 µM; in assay [4], 2.7 µM; in assay [5], over 50 µM; in assay [6], over 50 µM.
